From US20190202774A1, “BIARYL COMPOUNDS AS ANTIMICROBIAL AND CHEMOTHERAPEUTIC AGENTS” (priority 2015, published 2019) come the findings set out here.

Series [1] relates to erythrocytes from sheep blood. Description: Hemolytic activity. Conditions: sheep, 1 h. As to the method: Toxicity of biaryl compounds was tested against erythrocytes as well as eukaryotic epithelial, dermal, and macrophage cell lines in vitro.
Toxicity of lead antimicrobial candidates was tested against erythrocytes, as well as eukaryotic epithelial and dermal cell lines in vitro.

The subject of series [2] is human lung airway epithelial cells (16HBE). Conditions: human, 24 h. Here is the method:
(§1) Finally, toxicity of biaryl compounds was tested against human lung airway epithelial cells (16HBE), human dermal fibroblasts, and J774.A1 murine macrophages using an ALAMARBLUE® Cell Viability Assay. Biaryl compounds, C58, acetylated C58 (C58-2), C59, C59-2, C59Na, and C59Li were incubated with cells for 24 hours and an ALAMARBLUE® Cell Viability Assay was performed to determine cell viability relative to untreated controls (FIGS. 13A-13C). Cell viability curves were analyzed using non-linear curve fit to yield the inhibitory concentration at median cell survival (LD50) for all cell lines (Table 3).
(§2) Next, the toxicity of lead candidates was tested against human lung airway epithelial cells (16HBE) and human dermal fibroblasts (HDF) using an alamarBlue® Cell Viability Assay.

Series [3] concerns human dermal fibroblasts (HDF). Conditions: human, 24 h. Here is the method: as §1, §2

Take `COc1c(C)cc(O)c(-c2c(O)ccc3ccccc23)c1C`: the melting point is 190 to 191 °C.

`C[C@@H]1[C@H](O)[C@@H](C)/C=C/C=C/C=C/C=C/C=C/C=C/C=C/[C@H](O[C@@H]2O[C@H](C)[C@@H](O)[C@H](N)[C@@H]2O)C[C@@H]2O[C@](O)(C[C@@H](O)C[C@@H](O)[C@H](O)CC[C@@H](O)C[C@@H](O)CC(=O)O[C@H]1C)C[C@H](O)[C@H]2C(=O)O` [Amphotericin B, reference compound]: in series [1], the “concentration resulting in 100% hemolysis” value came out at 8000 ng/mL and the onset of hemolysis amounted to 2 µg/mL. For the same molecule, the “16HBE LD50” value in series [2] was 12.6 µg/mL. Also, in series [3], the “Fibroblasts LD50” value came out at 2.2 µg/mL.

Broadly, the melting point is the temperature of the solid-liquid transition.
